In test [1] the target is T1, rat M1 wild-type receptors (Rattus norvegicus, UniProt P08482).
T1 construct: expressed in transfected cells
T1 sequence (P08482 1-460): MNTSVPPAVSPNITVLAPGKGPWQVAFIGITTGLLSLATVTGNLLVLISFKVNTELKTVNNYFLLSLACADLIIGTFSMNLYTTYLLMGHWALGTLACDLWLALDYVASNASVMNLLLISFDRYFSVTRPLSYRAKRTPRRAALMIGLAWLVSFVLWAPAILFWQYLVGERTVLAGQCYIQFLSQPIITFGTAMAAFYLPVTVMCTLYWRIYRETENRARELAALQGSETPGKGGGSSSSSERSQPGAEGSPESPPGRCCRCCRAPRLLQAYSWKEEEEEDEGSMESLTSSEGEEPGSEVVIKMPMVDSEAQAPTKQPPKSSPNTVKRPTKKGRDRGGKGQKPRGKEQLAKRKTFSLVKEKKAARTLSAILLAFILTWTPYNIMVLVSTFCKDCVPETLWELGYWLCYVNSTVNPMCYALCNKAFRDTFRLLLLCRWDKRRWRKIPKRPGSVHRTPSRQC
Briefly: R-SAT functional assay, wild-type receptor. The format is cell-based. As to conditions: for EC50: read-out: pEC50 (converted); for Shift: EC50 divided by EC50 for wild-type (reference). As for the experimental part:
(§1) Cells are co-transfected for 18 h with DMEM containing 0.08 micrograms/ml of an expression vector for the expression of the mutant receptor and 0.3 micrograms/ml pSI-Bgal (Promega, Madison Wis.), and 0.5% v/v Polyfect (Qiagen, Valencia Calif.), as recommended by the manufacturer. On day three, the medium is replaced with DMEM containing 1% PSG, 0.5% calf serum, 2% cyto-sf3 (Kemp Biotechnologies, Frederick, Md.), and varying concentrations of the compounds to be tested. Cells are grown in a humidified atmosphere with 5% ambient CO2 for 5 days. The media is removed from the plates, and beta-galactosidase activity is measured by the addition of o-nitrophenyl -d-galactopyranoside in phosphate-buffered saline with 5% Nonidet P-40. […] The following equation is fitted to the data using GraphPad Prism software (San Diego, Calif.):
(§2) NIH-3T3 cells were grown in 96-well tissue culture plates to 70 to 80% confluence in Dulbecco's modified essential media (DMEM) supplemented with 100 units/ml penicillin, 100 micrograms/ml streptomycin, 0.3 mg/ml L-glutamine (1% PSG, GIBCO) and 10% calf serum (Sigma-Aldrich). Cells were transfected for 18 h with DMEM containing 0.08 micrograms/ml receptor DNA and 0.3 micrograms/ml pSI-Bgal (Promega, Madison Wis.), 0.5% v/v Polyfect (Qiagen, Valencia Calif.). Medium was replaced with DMEM containing 1% PSG, 0.5% calf serum, 2% cyto-sf3 (Kemp Biotechnologies, Frederick, Md.), and varying concentrations of ligand. […] Cells were grown in a humidified atmosphere with 5% ambient CO2 for 5 days. Medium was removed from the plates, and beta-galactosidase activity was measured by the addition of o-nitrophenyl -d-galactopyranoside in phosphate-buffered saline with 5% Nonidet P-40.
Receptor Selection and Amplification (R-SAT™) Assays: R-SAT™ functional assays were carried out as follows. NIH-3T3 cells were grown in 96-well tissue culture plates to 70 to 80% confluence in Dulbecco's modified essential media (DMEM) supplemented with 100 units/ml penicillin, 100 micrograms/ml streptomycin, 0.3 mg/ml L-glutamine (1% PSG, GIBCO) and 10% calf serum (Sigma-Aldrich). Cells were transfected for 18 h with DMEM containing 0.08 micrograms/ml receptor DNA and 0.3 micrograms/ml pSI-Bgal (Promega, Madison Wis.), 0.5% v/v Polyfect (Qiagen, Valencia Calif.). The transfected cells were frozen away. Cells were thawed and added to 96 well plates with DMEM containing 1% PSG, 0.5% calf serum, 2% cyto-sf3 (Kemp Biotechnologies, Frederick, Md.), and varying concentrations of ligand.
In an effort to further characterize monoamine modulators, we used a panel of mutant muscarininc M1 receptors to analyze the activity and potency of orthosteric modulators and various allosteric modulators at those receptors.

The target in test [2] is T2, rat M1 S109A receptor (Rattus norvegicus, UniProt P08482, S109A).
T2 construct: expressed in transfected cells
T2 sequence (P08482 1-460 S109A): T1 sequence (P08482 1-460) with S109A
Briefly: R-SAT functional assay, S109A mutant. The format is cell-based. As to conditions: Table 3; for Shift: EC50 S109A divided by EC50 wild-type; for EC50 / Eff (%): S109A; for Eff (%): maximum response, normalized. The procedure:
as §1, §2

The target in test [3] is T2, rat M1 S109A receptor. Briefly: ^3H-NMS radioligand binding, S109A. As to conditions: for Shift: Ki S109A divided by Ki wild-type. The procedure:
Briefly, cell homogenates are prepared from cells transiently or stably expressing wild type or mutant receptors. For transiently transfected cells, HEK cells are transfected with receptor of interest and cells harvested 48 hours post transfection. Cells expressing the receptor, stably or transiently, are harvested using phosphate buffered saline containing 5 mM EDTA, cells centrifuged at low speed and pellet re-suspended in binding buffer. Cell suspension is polytroned and centrifuged at 15,000×g. The pellet is resuspended in binding buffer and centrifugation repeated two more times. The washed cell homogenates are used for the competition binding assays. Competition binding assays are carried out in the presence of fixed amount of cell homogenate, fixed concentration of radioactively labeled orthosteric or allosteric ligand and varying concentrations of the cal under study using appropriate buffer. Incubations are carried out at room temperature for 2 hours. Incubations are terminated by filtration onto GF/B filters using Packard cell harvester followed by 3 washes with ice-cold buffer. Radioactivity retained on the filters is quantitated using Packard Top Count using Microscint 20 scintillation fluid. […] The membranes prepared above are incubated with a labeled ligand in 25 mM sodium phosphate, 5 mM magnesium chloride, 0.01% BSA two hours at room temperature. The binding reaction is stopped by rapid filtration onto GF/B filters. […] The pKd values (pKd=−log Kd) of the labeled ligand are calculated.
Radioligand binding assays were carried out in 25 mM sodium phosphate, 5 mM magnesium chloride, 0.01% BSA. Incubations were for two hours at room temperature, and reactions were stopped by rapid filtration onto GF/B filters.

The mark [4] stands for this setting: Table 2, maximum response relative to maximum response of carbachol.
The mark [5] stands for this setting: Table 3, M1 WT, maximum response, normalized.
Setting [6] is: Table 4, M1 wild type, maximum response relative to xanomeline.
The mark [7] stands for this setting: Table 10, M1 Wild-Type, NA = non-active.
[8] abbreviates: Table 10, M1 Wild-Type, maximum response relative to carbachol.

The record followed here is patent publication US20090209525A1, “ENABLING METHODS TO IDENTIFY ALLOSTERIC MODULATORS OF RECEPTOR ACTIVITY” (priority 2006, published 2009).

Numbering of substitutions follows the chain as printed. Where two headings read alike, the source gives them in different places.

For `CCCCC1CCN(CCCC(=O)c2ccccc2C)CC1` [AC-42, 4-n-butyl-1-[4-(2-methylphenyl)-4-oxo-1-butyl] piperidine hydrogen chloride], the “Eff (%)” value in test [1] (setting [4]) came out at 48 ± 11%; in test [1] (setting [5]) it was 47 ± 5%; in test [2], 59 ± 5%. The EC50 is 158 nM in test [1] (Table 2, mean +/- S.E.M., n=5); 158 nM in test [1] (Table 3, M1 WT); 200 nM in test [1] (setting [7]); 158 nM in test [2]. Besides, the Shift in test [1] (Table 3) amounted to 1; in test [2] it was 1; in test [3] it was 0.5. Further, the figures for the “% Eff” value in test [1] (setting [6]) and in test [1] (setting [8]) were 24% and 56%, respectively. The IC50 (as a rule, the concentration needed to halve the response being measured) in test [3] is 2510 nM.
As for `CCCCC1CCN(CCCN2C(=O)COc3cc(F)ccc32)CC1` [AC-260584, 4-[3-(4-Butyl-piperidin-1-yl)-propyl]-7-fluoro-4H-benzo [1,4]oxazin-3-one], the “Eff (%)” value in test [1] (setting [4]) came to 89 ± 11%; in test [1] (setting [5]) it was 89 ± 6%; in test [2], 104 ± 12%. Also, the EC50 is 15.8 nM in test [1] (Table 2, mean +/- S.E.M., n=5); 15.8 nM in test [1] (Table 3, M1 WT); 25.1 nM in test [1] (Table 4, M1 wild type); 25.1 nM in test [1] (setting [7]); 15.8 nM in test [2]. In addition, the Shift in test [1] (Table 3), in test [2] and in test [3] was 1 in each case. The “% Eff” value in test [1] (setting [6]) turned out to be 59%; in test [1] (setting [8]), 109%. Besides, in test [3], the IC50 was 1580 nM.
For `Clc1ccc2c(c1)N=C(N1CCNCC1)c1ccccc1N2` [NDMC, 8-chloro-11-(1-piperazinyl)-5H-dibenzo [b,e] [1,4] diazepine], the entries for the “Eff (%)” value in test [1] (setting [4]), in test [1] (setting [5]) and in test [2] were 79 ± 14%, 78 ± 4% and 68 ± 9%, respectively. In addition, the EC50 in test [1] (Table 2, mean +/- S.E.M., n=5) was 50.1 nM; in test [1] (Table 3, M1 WT), 50.1 nM; in test [1] (Table 4, M1 wild type) it was 31.6 nM; in test [1] (setting [7]), 100 nM; in test [2], 100 nM. Moreover, the Shift is on record as 1 in test [1] (Table 3), 2 in test [2] and 4 in test [3]. Moreover, the “% Eff” value in test [1] (setting [6]) was determined as 43%; in test [1] (setting [8]), 93%. Further, the IC50 in test [3] is 631 nM.
